{"source": "patent US10882844B2", "about": "“Compounds useful as immunomodulators” (Bristol-Myers Squibb Company, priority 2016, dated 2021)"}
{"target": "PD-1/PD-L1 (Homo sapiens (Human), UniProt Q9NZQ7)", "sequence (Q9NZQ7 other isoform, or with tags, fused parts or gaps)": "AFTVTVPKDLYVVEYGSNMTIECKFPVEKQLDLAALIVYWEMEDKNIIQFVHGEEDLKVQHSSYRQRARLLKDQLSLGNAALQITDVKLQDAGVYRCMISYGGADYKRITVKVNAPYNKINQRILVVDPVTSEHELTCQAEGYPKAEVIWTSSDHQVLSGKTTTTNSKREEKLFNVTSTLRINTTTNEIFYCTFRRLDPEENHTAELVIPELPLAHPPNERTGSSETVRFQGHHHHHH", "experiment": "PD-1/PD-L1 Homogenous Time-Resolved Fluorescence (HTRF) binding assay", "conditions": "PD-1-Ig / PD-L1-His HTRF; value given as number; read-out: Range or IC50", "text": "(§1) The ability of the compounds of formula (I) to bind to PD-L1 was investigated using a PD-1/PD-L1 Homogenous Time-Resolved Fluorescence (HTRF) binding assay.\n(§2) Homogenous Time-Resolved Fluorescence (HTRF) binding assay.\n(§3) The interaction of PD-1 and PD-L1 can be assessed using soluble, purified preparations of the extracellular domains of the two proteins. The PD-1 and PD-L1 protein extracellular domains were expressed as fusion proteins with detection tags, for PD-1, the tag was the Fc portion of Immunoglobulin (PD-1-Ig) and for PD-L1 it was the 6 histidine motif (PD-L1-His). All binding studies were performed in an HTRF assay buffer consisting of dPBS supplemented with 0.1% […] bovine serum albumin and 0.05% (v/v) Tween-20. For the h/PD-L1-His binding assay, inhibitors were pre-incubated with PD-L1-His (10 nM final) for 15 m in 4 μl of assay buffer, followed by addition of PD-1-Ig (20 nM final) in 1 μl of assay buffer and further incubation for 15 m. HTRF detection was achieved using europium crypate-labeled anti-Ig (1 nM final) and allophycocyanin (APC) labeled anti-His (20 nM final). Antibodies were diluted in HTRF detection buffer and 5 μl was dispensed on top of the binding reaction. The reaction mixture was allowed to equilibrate for 30 minutes and the resulting signal (665 nm/620 nm ratio) was obtained using an EnVision fluorometer. Additional binding assays were established between the human proteins PD-1-Ig/PD-L2-His (20 & 5 nM, respectively) and CD8O-His/PD-L1-Ig (100 & 10 nM, respectively).\n(§4) Recombinant Proteins: Human PD-1 (25-167) with a C-terminal human Fc domain of immunoglobulin G (Ig) epitope tag [hPD-1 (25-167)-3S-IG] and human PD-L1 (18-239) with a C-terminal His epitope tag [hPD-L1(18-239)-TVMV-His] were expressed in HEK293T cells and purified sequentially by ProteinA affinity chromatography and size exclusion chromatography. Human PD-L2-His and CD80-His was obtained through commercial sources.\n(§5) The table below lists the IC50 values for representative examples of this disclosure measured in the PD-1/PD-L1 Homogenous Time-Resolved Fluorescence (HTRF) binding assay. Ranges are as follows: A=0.18 nM-0.99 nM; B=1.0 nM-5.0 nM; C=5.01 nM-10.1 nM; D=10.2 nM-200 nM; E=201 nM→10 uM", "units": {"IC50": "nM"}}
{"smiles": "Cc1c(COc2cc(OCc3cncc(C#N)c3)c(CN3CCCC[C@H]3C(=O)O)cc2Cl)cccc1-c1ccc2oc(C3CCN(C)C3)nc2c1", "note": "(stereo partly drawn) [Example 1008, (2S)-1-(5-chloro-2-((5-cyanopyridin-3-yl)methoxy)-4-((2-methyl-3-(2-(1-methylpyrrolidin-3-yl)benzo[d]oxazol-5-yl)benzyl)oxy)benzyl)piperidine-2-carboxylic Acid]", "IC50": 0.67}
{"smiles": "CCC[C@H](NCc1cc(Cl)c(OCc2cccc(-c3ccc4oc(N5CCN(C)CC5)nc4c3)c2C)cc1OCc1cncc(C#N)c1)C(=O)O", "note": "[Example 2012, (S)-2-((5-chloro-2-((5-cyanopyridin-3-yl)methoxy)-4-((2-methyl-3-(2-(4-methylpiperazin-1-yl)benzo[d]oxazol-5-yl)benzyl)oxy)benzyl)amino)pentanoic Acid]", "IC50": 7.2}
{"target": "PD-1/PD-L1 (Homo sapiens (Human), UniProt Q9NZQ7)", "experiment": "PD-1/PD-L1 Homogenous Time-Resolved Fluorescence (HTRF) binding assay", "conditions": "PD-1-Ig / PD-L1-His HTRF; value given as range class; read-out: Range or IC50", "text": "as §1, §2, §3, §4, §5", "units": {"IC50": "nM"}}
{"smiles": "Cc1c(COc2cc(OCc3cncc(C#N)c3)c(CN3CCCC[C@H]3C(=O)O)cc2Cl)cccc1-c1ccc2ncc(C3=CC4CCC(C3)N4C(=O)OC(C)(C)C)nc2c1", "note": "(some centres unmarked) [Example 1028]", "IC50": "201 to 10000"}
{"smiles": "Cc1c(COc2cc(OCc3cncc(C#N)c3)c(CN3CCCC[C@H]3C(=O)O)cc2Cl)cccc1-c1ccc2oc(C3CCN(CC(=O)O)CC3)nc2c1", "note": "[Example 1016, (S)-1-(4-((3-(2-(1-(carboxymethyl)piperidin-4-yl)benzo[d]oxazol-5-yl)-2-methylbenzyl)oxy)-5-chloro-2-((5-cyanopyridin-3-yl)methoxy)benzyl)piperidine-2-carboxylic Acid]", "IC50": "0.18 to 0.99"}
{"smiles": "Cc1c(COc2cc(OCc3cncc(C#N)c3)c(CN3CCCC[C@H]3C(=O)O)cc2Cl)cccc1-c1ccc2oc(C3CCOCC3)nc2c1", "note": "[Example 1017, (S)-1-(5-chloro-2-((5-cyanopyridin-3-yl)methoxy)-4-((2-methyl-3-(2-(tetrahydro-2H-pyran-4-yl)benzo[d]oxazol-5-yl)benzyl)oxy)benzyl)piperidine-2-carboxylic Acid]", "IC50": "0.18 to 0.99"}
{"smiles": "Cc1c(COc2cc(OCc3cncc(C#N)c3)c(C=O)cc2Cl)cccc1-c1ccc2oc(C3CCN(C)CC3)nc2c1", "note": "[Example 1019, 5-((4-chloro-2-formyl-5-((2-methyl-3-(2-(1-methylpiperidin-4-yl)benzo[d]oxazol-5-yl)benzyl)oxy)phenoxy)methyl)nicotinonitrile]", "IC50": "5.01 to 10.1"}
{"smiles": "Cc1c(COc2cc(OCc3cncc(C#N)c3)c(CN3CCCC[C@H]3C(=O)O)cc2Cl)cccc1-c1ccc2oc(C3CC4CCC(C3)N4C)nc2c1", "note": "(stereo partly drawn) [Example 1014, (2S)-1-(5-chloro-2-((5-cyanopyridin-3-yl)methoxy)-4-((2-methyl-3-(2-(8-methyl-8-azabicyclo[3.2.1]octan-3-yl)benzo[d]oxazol-5-yl)benzyl)oxy)benzyl)piperidine-2-carboxylic Acid]", "IC50": "1 to 5"}
{"smiles": "Cc1c(COc2cc(OCc3cncc(C#N)c3)c(CN3CCCC[C@H]3C(=O)O)cc2Cl)cccc1-c1ccc2oc(-c3ccncc3)nc2c1", "note": "[Example 1007, (S)-1-(5-chloro-2-((5-cyanopyridin-3-yl)methoxy)-4-((2-methyl-3-(2-(pyridin-4-yl)benzo[d]oxazol-5-yl)benzyl)oxy)benzyl)piperidine-2-carboxylic Acid]", "IC50": "1 to 5"}
{"smiles": "Cc1c(COc2cc(OCc3cncc(C#N)c3)c(CNC(CO)CO)cc2Cl)cccc1-c1ccc2oc(N3CCN(C)CC3)nc2c1", "note": "[Example 2008]", "IC50": "1 to 5"}
{"smiles": "CCN(CC)C1CCC(c2nc3cc(-c4cccc(COc5cc(OCc6cncc(C#N)c6)c(CN6CCCC[C@H]6C(=O)O)cc5Cl)c4C)ccc3o2)CC1", "note": "(stereo partly drawn) [Example 1012, (S)-1-(5-chloro-2-((5-cyanopyridin-3-yl)methoxy)-4-((3-(2-(4-(diethylamino)cyclohexyl)benzo[d]oxazol-5-yl)-2-methylbenzyl)oxy)benzyl)piperidine-2-carboxylic Acid]", "IC50": "0.18 to 0.99"}
{"smiles": "Cc1c(COc2cc(OCc3cncc(C#N)c3)c(CN3CCCC[C@H]3C(=O)O)cc2Cl)cccc1-c1ccc2oc(C3CCC(C(=O)O)CC3)nc2c1", "note": "(single isomer, unassigned) [Example 1025]", "IC50": "0.18 to 0.99"}
{"smiles": "Cc1c(COc2cc(OCc3cncc(C#N)c3)c(CN3CCCC[C@H]3C(=O)O)cc2Cl)cccc1-c1ccc2oc(C3CCN(c4ccccc4)CC3)nc2c1", "note": "[Example 1022, (S)-1-(5-chloro-2-((5-cyanopyridin-3-yl)methoxy)-4-((2-methyl-3-(2-(1-phenylpiperidin-4-yl)benzo[d]oxazol-5-yl)benzyl)oxy)benzyl)piperidine-2-carboxylic Acid]", "IC50": "10.2 to 200"}
{"smiles": "Cc1c(COc2cc(OCc3cncc(C#N)c3)c(CN3CCCC[C@H]3C(=O)O)cc2Cl)cccc1-c1ccc2oc(C3CC4CCC(C3)O4)nc2c1", "note": "(stereo partly drawn) [Example 1018, (2S)-1-(4-((3-(2-(8-oxabicyclo[3.2.1]octan-3-yl)benzo[d]oxazol-5-yl)-2-methylbenzyl)oxy)-5-chloro-2-((5-cyanopyridin-3-yl)methoxy)benzyl)piperidine-2-carboxylic Acid]", "IC50": "1 to 5"}
{"smiles": "Cc1c(COc2cc(OCc3cncc(C#N)c3)c(CNC(C)(CO)CO)cc2Cl)cccc1-c1ccc2oc(N3CCN(C)CC3)nc2c1", "note": "[Example 2009]", "IC50": "0.18 to 0.99"}
{"smiles": "Cc1c(COc2cc(OCc3cncc(C#N)c3)c(CN3CCCC[C@H]3C(=O)O)cc2Cl)cccc1-c1ccc2ncc(N3CCN(C)CC3)nc2c1", "note": "[Example 1031, (S)-1-(5-chloro-2-((5-cyanopyridin-3-yl)methoxy)-4-((2-methyl-3-(3-(4-methylpiperazin-1-yl)quinoxalin-6-yl)benzyl)oxy)benzyl)piperidine-2-carboxylic Acid]", "IC50": "5.01 to 10.1"}
{"smiles": "Cc1c(COc2cc(OCc3cncc(C#N)c3)c(CN3CCCC[C@H]3C(=O)O)cc2Cl)cccc1-c1ccc2oc(C3CCN(C(C)C)CC3)nc2c1", "note": "[Example 1013, (S)-1-(5-chloro-2-((5-cyanopyridin-3-yl)methoxy)-4-((3-(2-(1-isopropylpiperidin-4-yl)benzo[d]oxazol-5-yl)-2-methylbenzyl)oxy)benzyl)piperidine-2-carboxylic Acid]", "IC50": "1 to 5"}
{"smiles": "Cc1c(COc2cc(OCc3cncc(C#N)c3)c(CN(C)C(C)(CO)CO)cc2Cl)cccc1-c1ccc2oc(N3CCN(C)CC3)nc2c1", "note": "[Example 2015]", "IC50": "0.18 to 0.99"}
{"smiles": "Cc1c(COc2cc(OCc3cncc(C#N)c3)c(CN3CCCC[C@H]3C(=O)O)cc2Cl)cccc1-c1ccc2oc(C34CC(N)(C3)C4)nc2c1", "note": "[Example 1015, (S)-1-(4-((3-(2-(3-aminobicyclo[1.1.1]pentan-1-yl)benzo[d]oxazol-5-yl)-2-methylbenzyl)oxy)-5-chloro-2-((5-cyanopyridin-3-yl)methoxy)benzyl)piperidine-2-carboxylic Acid]", "IC50": "5.01 to 10.1"}
{"smiles": "COc1cc(OCc2cccc(-c3ccc4oc(C5CCN(c6ccccc6)CC5)nc4c3)c2C)c(Cl)cc1CN1CCCC[C@H]1C(=O)O", "note": "[Example 1023, (S)-1-(5-chloro-2-methoxy-4-((2-methyl-3-(2-(1-phenylpiperidin-4-yl)benzo[d]oxazol-5-yl)benzyl)oxy)benzyl)piperidine-2-carboxylic Acid]", "IC50": "201 to 10000"}
{"smiles": "Cc1c(COc2cc(OCc3cncc(C#N)c3)c(CN3CCCC[C@H]3C(=O)O)cc2Cl)cccc1-c1ccc2oc(C3CC4CCC(C3)N4)nc2c1", "note": "(stereo partly drawn) [Example 1006, (2S)-1-(4-((3-(2-(8-azabicyclo[3.2.1]octan-3-yl)benzo[d]oxazol-5-yl)-2-methylbenzyl)oxy)-5-chloro-2-((5-cyanopyridin-3-yl)methoxy)benzyl)piperidine-2-carboxylic Acid]", "IC50": "1 to 5"}
{"smiles": "Cc1c(COc2cc(OCc3cncc(C#N)c3)c(CO)cc2Cl)cccc1-c1ccc2oc(C3CCN(C)CC3)nc2c1", "note": "[Example 1021, 5-((4-chloro-2-(hydroxymethyl)-5-((2-methyl-3-(2-(1-methylpiperidin-4-yl)benzo[d]oxazol-5-yl)benzyl)oxy)phenoxy)methyl)nicotinonitrile]", "IC50": "5.01 to 10.1"}
{"smiles": "Cc1c(COc2cc(OCc3cncc(C#N)c3)c(CN3CCCC[C@H]3C(=O)O)cc2Cl)cccc1-c1ccc2oc(C3CCN(C)CC3)nc2c1C", "note": "[Example 1010, (S)-1-(5-chloro-2-((5-cyanopyridin-3-yl)methoxy)-4-((2-methyl-3-(4-methyl-2-(1-methylpiperidin-4-yl)benzo[d]oxazol-5-yl)benzyl)oxy)benzyl)piperidine-2-carboxylic Acid]", "IC50": "1 to 5"}
{"smiles": "Cc1c(COc2cc(OCc3cncc(C#N)c3)c(CN3CCCC[C@H]3C(=O)O)cc2Cl)cccc1-c1ccc2oc(C3CCC(C(=O)O)CC3)nc2c1", "note": "(single isomer, unassigned) [Example 1026]", "IC50": "201 to 10000"}
